In patent US11219656B2 (Industry-Academic Cooperation Foundation, Yonsei University, priority 2011, dated 2022):

Tests used:
[1] = system: ALP (alkaline phosphatase) in primary osteoblast (POB) cells; assay: ALP staining in differentiated primary osteoblast cells; format: cell-based; details: 20 μM, differentiated and stained for 9 days (FIG. 8)
Experimental: In addition, in order to confirm the activity of ALP (alkaline phosphatase) showing the activation of bones, 20 μM of gallocatechin was treated with primary osteoblast (POB) cells, and allowed to differentiate and stain for 9 days.

calvaria = assay: Calvaria thickness measurement, gallocatechin and methyl vanillate treatment; format: cell-based; details: calvaria of 4-day-old postnatal mice under differentiation, one week (FIG. 7)
Experimental: While inducing the differentiation in the calvaria of 4-day-old postnatal mice supplied by Orient Bio. 2 nM of gallocatechin and 0.2 nM of methyl vanillate were treated for one week.

[2] = system: ALP (alkaline phosphatase); assay: ALP activity analysis; format: cell-based; details: within the concentration gradient (FIG. 9 and FIG. 10)
SD-based rat = details: single oral dose of 1 g/kg
Experimental: 6-week old specific pathogen-free (SPF) SD-based rat supplied from the DAEHAN Experiment Supply Center was used and the acute toxicity experiments were conducted as follows.
The animal mortality, clinical symptoms, and change in the body weight were observed and then hematologic testing and blood biochemical tests were conducted.

SMILES	expression of ALP (staining) [1]	thickness of the calvaria (calvaria; 2 nM gallocatechin)	activity of ALP [2]	specific clinical symptoms and died animals (SD-based rat)	toxic changes in body weight, blood tests, blood biochemical tests and autopsy findings (SD-based rat)	thickness of the calvaria (calvaria; 0.2 nM methyl vanillate)
Oc1cc(O)c2c(c1)O[C@H](c1cc(O)c(O)c(O)c1)[C@@H](O)C2 [gallocatechin]	increased	increased	increased	not found	not observed	
COC(=O)c1ccc(O)c(OC)c1 [methyl vanillate]			increased			increased
